Assay [1] has as its system mouse. Briefly: Analgesic activity, writhing test (mouse). It is filed as in vivo. On the procedure:
(§1) The end product of Example 1, i.e. 2-[N-(2-fluoro-6-bromo-phenyl)-N-(thienyl-2-methyl)-amino]-2-imidazoline (A), and [N-2,6-dibromo-phenyl)-N-(thienyl-2-methyl)-amino]-2-imidazoline (B), disclosed in column 2, lines 47-48, of U.S. Pat. No. 3,937,717, were tested for analgesic activity and locomotion-inhibiting activity by the standard test methods described in the following literature references:
Analgesic activity: Ph. Linee, J. Pharmacol. (Paris) 3,4 513-515 (1972). Writhing test.
(Writhing tests count abdominal constrictions after an irritant is injected.)

Assay [2] has as its system mouse. Briefly: Locomotion-inhibiting activity (mouse). It is filed as in vivo. Conditions: sc, read-out: Locomotion inhibition (mouse) ED50 s.c. On the procedure: as §1
Locomotion--inhibiting activity: K. Stockhaus et al., Committee on Problems of Drug Dependence (1970) 6890-6898 National Academy of Sciences.

[3] abbreviates: po, read-out: Writhing test (mouse) ED50 p.o.
Where [4] appears, read: sc, read-out: Writhing test (mouse) ED50 s.c.

Our source for the ED50 values is patent US4478844A, “Bradycardiac or analgesic 2-(N-(thienyl-2-methyl)-N-(2-fluoro-6-methyl-phenyl)-amino)-2-imidazolin e and salts thereof” (Boehringer Ingelheim KG, priority 1979, dated 1984).

What is called ED50 is the dose that gives a 50% effect, or the effect in half of the subjects.

Molecules are shown by their SMILES.

Regarding `Fc1cccc(Br)c1N(Cc1cccs1)C1=NCCN1` [A, 2-[N-(2-fluoro-6-bromo-phenyl)-N-(thienyl-2-methyl)-amino]-2-imidazoline], the median effective dose (ED50) with mouse [1] (setting [3]) was 0.28 mg/kg; in the assay on mouse [1] (setting [4]), 0.12 mg/kg; in the assay on mouse [2], 0.13 mg/kg.
Turning to `Brc1cccc(Br)c1N(Cc1cccs1)C1=NCCN1` [B], the ED50 in the assay on mouse [1] (setting [3]) was 0.6 mg/kg; in the assay with mouse [1] (setting [4]), 0.3 mg/kg; with mouse [2], 0.6 mg/kg.
